From publication PMC6796961, “Bioinformatic and biochemical analysis of the key binding sites of the pheromone binding protein of Cyrtotrachelus buqueti Guerin-Meneville (Coleoptera: Curculionidea)” (PeerJ, 2019)

How the values were obtained:
Assay type in all cases: binding
CbuqPBP1 [1] = molecular target: T1, CbuqPBP1 (Cyrtotrachelus buqueti, UniProt A0A1B3IIF7, H53A); test: fluorescence titration, Scatchard plot
T1 construct: E. coli BL21(DE3), pET-28a(+); His-tag cut with enterokinase; about 400 bp insert, 16 kDa
T1 sequence (A0A1B3IIF7 17-143 H53A): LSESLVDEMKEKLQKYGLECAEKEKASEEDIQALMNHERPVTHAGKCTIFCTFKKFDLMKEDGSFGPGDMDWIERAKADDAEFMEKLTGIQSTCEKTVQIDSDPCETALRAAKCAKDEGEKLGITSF

CbuqPBP1 [2] = molecular target: T2, CbuqPBP1 (Cyrtotrachelus buqueti, UniProt A0A1B3IIF7, F69A); test: fluorescence titration, Scatchard plot
T2 construct: E. coli BL21(DE3), pET-28a(+); His-tag cut with enterokinase; about 400 bp insert, 16 kDa
T2 sequence (A0A1B3IIF7 17-143 F69A): T1 sequence (A0A1B3IIF7 17-143 H53A)

CbuqPBP1 [3] = molecular target: T3, CbuqPBP1 (Cyrtotrachelus buqueti, UniProt A0A1B3IIF7); test: fluorescence titration, Scatchard plot
T3 construct: E. coli BL21(DE3), pET-28a(+); His-tag cut with enterokinase; about 400 bp insert, 16 kDa
T3 sequence (A0A1B3IIF7 17-143): T1 sequence (A0A1B3IIF7 17-143 H53A)

CbuqPBP1 [4] = molecular target: T2, CbuqPBP1; test: competitive displacement of 1-NPN fluorescence
Excerpt: (§1) competitive displacement of 1-NPN fluorescence on CbuqPBP1

CbuqPBP1 [5] = molecular target: T3, CbuqPBP1; test: competitive displacement of 1-NPN fluorescence; conditions: for IC50: read-out: IC50 (μM) / PBP1; for Ki: read-out: Ki (μM) / PBP1
Excerpt: as §1

SMILES | Kd (CbuqPBP1 [1]) | Kd (CbuqPBP1 [2]) | Kd (CbuqPBP1 [3]) | IC50 (CbuqPBP1 [4]) | Ki (CbuqPBP1 [4]) | IC50 (CbuqPBP1 [5]) | Ki (CbuqPBP1 [5])
c1ccc(Nc2cccc3ccccc23)cc1 [1-NPN] | 3.35 µM | 2.26 µM | 2.73 µM | – | – | – | –
CCCCOC(=O)c1ccccc1C(=O)OCCCC [dibutyl phthalate] | – | – | – | 20 µM | 13.9 µM | – | –
C[C@@H]1CC[C@H]2C(C)(C)[C@H]3C[C@@]12CC[C@@]3(C)O [cedrol] | – | – | – | – | – | 30 µM | 21.9 µM
c1ccc2scnc2c1 [benzothiazole] | – | – | – | 10.5 µM | 7.3 µM | 13.4 µM | 9.82 µM
